Experimental data taken from the supplement of paper PMC13380429.

Legend:
Conditions in all cases: 72 h
[1] = tested on: Caco-2; test: cell viability relative to DMSO; higher = less toxic
[2] = tested on: Calu-3; test: as above
[3] = tested on: U2OS; test: as above
[4] = tested on: Vero E6; test: as above
[5] = tested on: HepG2; test: as above
[6] = tested on: Caco-2; test: relative viability EC50 (midpoint between 100% and the lowest measured viability); higher = less toxic
[7] = tested on: Calu-3; test: as above
[8] = tested on: U2OS; test: as above
[9] = tested on: Vero E6; test: as above
[10] = tested on: HepG2; test: as above
[11] = tested on: Caco-2; test: drug sensitivity score (DSS) for viability; higher = more toxic; extreme values may be limits of the assay
[12] = tested on: Calu-3; test: as above
[13] = tested on: U2OS; test: as above
[14] = tested on: Vero E6; test: as above
[15] = tested on: HepG2; test: as above

SMILES	cell viability ([1]; 1 nM) [%]	cell viability ([1]; 10 nM) [%]	cell viability ([1]; 100 nM) [%]	cell viability ([1]; 1000 nM) [%]	cell viability ([1]; 10000 nM) [%]	cell viability ([2]; 1 nM) [%]	cell viability ([2]; 10 nM) [%]	cell viability ([2]; 100 nM) [%]	cell viability ([2]; 1000 nM) [%]	cell viability ([2]; 10000 nM) [%]	cell viability ([3]; 1 nM) [%]	cell viability ([3]; 10 nM) [%]	cell viability ([3]; 100 nM) [%]	cell viability ([3]; 1000 nM) [%]	cell viability ([3]; 10000 nM) [%]	cell viability ([4]; 1 nM) [%]	cell viability ([4]; 10 nM) [%]	cell viability ([4]; 100 nM) [%]	cell viability ([4]; 1000 nM) [%]	cell viability ([4]; 10000 nM) [%]	cell viability ([5]; 1 nM) [%]	cell viability ([5]; 10 nM) [%]	cell viability ([5]; 100 nM) [%]	cell viability ([5]; 1000 nM) [%]	cell viability ([5]; 10000 nM) [%]	relative viability EC50 [6] [µM]	relative viability EC50 [7] [µM]	relative viability EC50 [8] [µM]	relative viability EC50 [9] [µM]	relative viability EC50 [10] [µM]	drug sensitivity score [11]	drug sensitivity score [12]	drug sensitivity score [13]	drug sensitivity score [14]	drug sensitivity score [15]
Fc1ccc([C@@H]2CCNC[C@H]2COc2ccc3c(c2)OCO3)cc1 [paroxetine]	85.8	102	111	98.6	82.1	95.9	87.4	93.1	85.1	108	97.7	96.4	103	98	101	95.9	104	98.7	101	100	117	120	108	83.7	102	> 10	> 10	> 10	> 10	> 10	0.6	0	0	0	0
CC(=O)N(OCc1ccccc1)[C@@H]1c2cc(C#N)ccc2OC(C)(C)[C@H]1O	97.8	100	99	96.5	103	103	96.9	98	103	106	97.5	96.1	105	94.5	94.8	95.3	97.7	94.2	99.9	109	95.1	103	96.2	109	109	> 10	> 10	> 10	> 10	> 10	0	0	0	0	0
COc1c(Nc2ccc(S(C)(=O)=O)nc2C)ncnc1OC1CCN(C(=O)OC(C)C)CC1 [APD597]	96.5	96.2	103	93.4	90.2	106	105	106	109	98.7	99.5	99.1	99.6	99.7	100	106	98.2	97	100	95.5	99.6	104	94.4	94.6	86.3	> 10	> 10	> 10	> 10	> 10	0	0	0	0	0.1
Fc1ccc2nc(CCC#Cc3ccccn3)cn2c1 [dipraglurant]	102	94.2	106	99.5	99.3	92.1	100	95.2	99.4	88	100	97.3	95.3	93.9	99.9	94.8	100	91.6	93.3	110	99.9	99.8	103	104	106	> 10	> 10	> 10	> 10	> 10	0	0.1	0	0	0
Cc1ccc2c(c1)[C@]13CCCC[C@@H]1[C@H](C2)N(C)CC3 [dimemorfan]	93.5	96.5	94.6	103	91.8	89.1	95.5	89.1	89.2	98.7	96.8	102	95.7	101	93.7	101	103	104	98.7	106	105	103	99	95.3	101	> 10	> 10	> 10	> 10	> 10	0	0	0	0	0
CCN(CC)CCOc1ccccc1C(=O)CCc1ccccc1 [etafenone]	93.3	104	94	103	100	96.9	99	106	108	101	94.8	101	97.9	103	103	93.2	93	101	91.8	102	98.6	90.6	106	94.7	94.3	> 10	> 10	> 10	> 10	> 10	0	0	0	0	0
CCC1NC(=O)c2cc(S(N)(=O)=O)c(Cl)cc2N1 (stereo not given) [quinethazone]	94.3	108	96.4	97.4	82.9	101	94.8	97.5	91.2	95.1	91.9	100	93.3	101	105	106	86.7	103	100	98.6	110	103	103	92.6	93.1	> 10	> 10	> 10	> 10	> 10	0.7	0	0	0	0
CC[C@H](CC[C@@H](C)[C@H]1CC[C@H]2[C@@H]3CC=C4C[C@@H](O)CC[C@]4(C)[C@H]3CC[C@]12C)C(C)C [beta-Sitosterol]	95.1	108	99.4	97.6	107	91.6	105	99	93.7	106	96.4	99.1	99.6	101	97.4	92.7	105	92.4	99.2	108	88.3	114	93.3	98.8	109	> 10	> 10	> 10	> 10	> 10	0	0	0	0	0
C#C[C@]1(O)C=C[C@H]2[C@@H]3CCC4=CC(=O)CC[C@@H]4[C@H]3CC[C@@]21CC [gestodene]	90.1	89.6	98.9	100	98.7	95.9	101	101	88.5	108	96.3	99.2	94.3	96	102	95.9	96.8	96.3	94.3	106	103	102	111	105	99.7	> 10	> 10	> 10	> 10	> 10	0	0	0	0	0
CCOc1cc(/C=C2/C(=O)N(c3ccccc3)N=C2C)cc(Cl)c1OCC(=O)OC	102	108	92.4	92.9	97.4	92.9	95.9	105	94.8	108	102	100	98.2	96.2	99.4	104	106	103	102	97.7	96.5	101	96.1	98.3	91.6	> 10	> 10	> 10	> 10	> 10	0	0	0	0	0
C[C@]12C/C(=C/O)C(=O)C[C@@H]1CC[C@@H]1[C@@H]2CC[C@@]2(C)[C@H]1CC[C@]2(C)O [Oxymetholone]	100	87.8	102	90.4	96.1	117	97.6	97.3	102	101	102	97.8	99.6	97	98.1	97.4	101	106	104	96.3	101	108	96	111	96	> 10	> 10	> 10	> 10	> 10	0	0	0	0	0
Nc1cc(C(F)(F)F)c(-c2cc(N3CCOCC3)nc(N3CCOCC3)n2)cn1 [buparlisib]	95.3	99	91.5	53.5	18	116	97.3	87.7	40.5	18	103	102	104	79.4	15.6	101	97	92.9	66.2	17.8	100	96.6	95.7	67.2	10.5	0.761	0.434	1.57	1.22	1.3	10.3	12.7	7.9	8.4	9.1
CC(=O)N[C@@H](CS)C(=O)O [acetylcysteine]	105	87.1	98.1	101	100	101	101	93	96.2	104	99.1	97.2	100	95.5	102	104	106	102	103	97.8	99.2	103	94.9	103	104	> 10	> 10	> 10	> 10	> 10	0	0	0	0	0
CC(C)(C)c1[nH]cnc1/C=c1\[nH]c(=O)/c(=C/c2ccccc2)[nH]c1=O [plinabulin]	107	89.1	68.6	53.5	37.6	102	87.9	56.8	40.7	36.6	101	94.9	45.3	22.3	20.6	106	101	32.7	11.7	11.4	108	97.1	50.1	25.5	30.9	0.123	0.0465	0.0591	0.0633	0.0668	13.1	17.3	21.3	23.9	19.7
